In patent US6465491B2, “6-phenylpyridyl-2-amine derivatives” (Pfizer Inc., priority 1996, dated 2002):
Where a name gives a salt, the structure may show the parent alone.

In the case of `NC(=O)CNC1C2CN(CCc3ccc(-c4cccc(N)n4)cc3)CC21` (stereo not shown) [Example 52, 2-(3-{2-[4-(6-Amino-pyridin-2-yl)-phenyl]-ethyl}-3-aza-bicyclo[3.1.0]hex-6-ylamino)-acetamide], the melting point is reported as 140 °C (dec.).
Work on `Nc1cccc(-c2ccc(CCN3CCC(N)CC3)cc2)n1` (as salt: trifluoroacetate) [Example 67, 6-{4-[2-(4-Amino-piperidin-1-yl)-ethyl]-phenyl}-pyridin-2-ylamine] yielded a melting point of 190 to 195 °C.
In the case of `CN1CC2CC1CN2CCc1ccc(-c2cccc(N)n2)cc1` (stereo not shown) (as salt: hydrochloride), the melting point is reported as 132 °C (dec.).
With `CC(C)CN1CCN(CCc2ccc(-c3cccc(N)n3)cc2)CC1` [Example 17, 6-{4-[2-(4-Isobutyl-piperazin-1-yl)-ethyl]-phenyl}-pyridin-2-ylamine] the melting point was 85 to 88 °C.
`Nc1cccc(-c2ccc(CCNCCc3ccccc3)cc2)n1` (as salt: hydrochloride) [Example 35, 6-[4-(2-Phenethylamino-ethyl)-phenyl]-pyridin-2-ylamine] gave a melting point of 212 to 215 °C.
In the case of `Nc1cccc(-c2ccc(CCN3CC4C(C3)C4NC(=O)Cc3ccc(F)cc3)cc2)n1` (stereo not shown) [Example 38, N-(3-{2-[4-(6-Amino-pyridin-2-yl)-phenyl]-ethyl}-3-aza-bicyclo[3.1.0]hex-6-yl)-2-(4-fluoro-phenyl)-acetamide], the melting point is reported as 161 to 163 °C.
With `Nc1cccc(-c2ccc(CCNC3CC4CCC(C3)N4Cc3ccccc3)cc2)n1` (stereo not shown) (as salt: hydrochloride) the melting point was 260 °C (dec.).
For `Nc1cccc(-c2ccc(CCNC3C4CC5CC(C4)CC3C5)cc2)n1` (stereo not shown) (as salt: hydrochloride) [Example 116, 6-{4-[2-(Adamantan-2-ylamino)-ethyl]-phenyl}-pyridin-2-ylamine], the melting point was 215 to 230 °C (dec.).
For `Nc1cccc(-c2ccc(CNCCc3ccccc3)cc2)n1` (as salt: hydrochloride) [Example 135, 6-[4-(Phenethylamino-methyl)-phenyl]-pyridin-2-ylamine], the melting point was 236 to 238 °C.
With `Nc1cccc(-c2ccc(CCNC3CC4CCC(C3)N4C(=O)Cc3ccc(F)cc3)cc2)n1` (stereo not shown) (as salt: hydrochloride) the melting point was 170 °C (dec.).
With `Nc1cccc(-c2ccc(CCN3CC4C(C3)C4NC(=O)Nc3ccccc3)cc2)n1` (stereo not shown) [Example 36, 1-(3-{2-[4-(6-Amino-pyridin-2-yl)-phenyl]-ethyl}-3-aza-bicyclo[3.1.0]hex-6-yl)-3-phenyl-urea] the melting point was 192 to 194 °C.
With `Nc1cccc(-c2ccc(CCN3CCN(C(=O)COc4ccccc4)CC3)cc2)n1` the melting point was 127 to 130 °C.
With `Nc1cccc(-c2ccc(CCN3CCCC(N)C3)cc2)n1` (stereo not shown) (as salt: hydrochloride) [Example 86, 6-{4-[2-(3-Amino-piperidin-1-yl)-ethyl]-phenyl}-pyridin-2-ylamine] the melting point was 150 °C (dec.).
In the case of `Nc1cccc(-c2ccc(CCN3CCN(c4nnnn4-c4ccccc4)CC3)cc2)n1` [Example 27, 6-(4-{2-[4-(1 -Phenyl-1H-tetrazol-5-yl)-piperazin-1-yl]-ethyl}-phenyl)-pyridin-2-ylamine], the melting point is reported as 212 to 214 °C.
`Cc1cccc(NC(=O)N2CCN(CCc3ccc(-c4cccc(N)n4)cc3)CC2)c1` [Example 45, 4-{2-[4-(6-Amino-pyridin-2-yl)-phenyl]-ethyl}-piperazine-1-carboxylic acid m-tolyl-amide] gave a melting point of 88 to 94 °C.
In the case of `Nc1cccc(-c2ccc(CCN3C4CCC3CC(NC(=O)Cc3ccc(F)cc3)C4)cc2)n1` (stereo not shown) (as salt: hydrochloride), the melting point is reported as 160 °C (dec.).
For `Nc1cccc(-c2ccc(CCN3CCC4(CC3)NC(=O)N(CCc3ccccc3)C4=O)cc2)n1` (as salt: hydrochloride) [Example 57, 8-{2-[4-(6-Amino-pyridin-2-yl)-phenyl]-ethyl}-3-phenethyl-1,3,8-triaza-spiro[4.5]decane-2,4-dione], the melting point was 176 to 180 °C.
For `Cc1ccc(NC(=O)N2CCN(CCc3ccc(-c4cccc(N)n4)cc3)CC2)cc1C` [Example 41, 4-{2-[4-(6-Amino-pyridin-2-yl)-phenyl]-ethyl}-piperazine-1carboxylic acid (3,4-dimethyl-phenyl)-amide], the melting point was 122 to 125 °C.
For `Nc1cccc(-c2ccc(CCN3CCC(NC(=O)NC4CCCCC4)C3)cc2)n1` (stereo not shown) (as salt: hydrochloride) [Example 74, 1-(1-{2-[4-(6-Amino-pyridin-2-yl)-phenyl]-ethyl}-pyrrolidin-3-yl)-3-cyclohexyl-urea], the melting point was 120 °C (dec.).
`Nc1cccc(-c2ccc(CCN3CCc4ccccc4C3)cc2)n1` [Example 6, 6-{4-[2-(3,4-Dihydro-1H-isoquinolin-2-yl)-ethyl]-phenyl}-pyridin-2-ylamine] gave a melting point of 130 to 132 °C.
`Nc1cccc(-c2ccc(CCN3CCN(c4nc(-c5ccccc5)cs4)CC3)cc2)n1` [Example 15, 6-(4-{2-[4-(4-Phenyl-thiazol-2-yl)-piperazin-1-yl]-ethyl}-phenyl)-pyridin-2-ylamine] showed a melting point of 158 to 161 °C.
Work on `Cl.Nc1cccc(-c2ccc(CCN3CC4C(C3)C4NCCCc3ccccc3)cc2)n1` (stereo not shown) yielded a melting point of 160 to 163 °C.
For `CC(=O)N1CCN(CCc2ccc(-c3cccc(N)n3)cc2)CC1` [Example 10, 1-(4-{2-[4-(6-Amino-pyridin-2-yl)-phenyl]-ethyl}-piperazin-1-yl)-ethanone], the melting point was 201 to 203 °C.
For `Nc1cccc(-c2ccc(CCNC3C4CCCC3CN(Cc3ccccc3)C4)cc2)n1` (stereo not shown) (as salt: hydrochloride) [Example 84, {2-[4-(6-Amino-pyridin-2-yl)-phenyl]-ethyl}-(3-benzyl-3-aza-bicyclo[3.3.1]non-9-yl)-amine], the melting point was 190 °C (dec.).
Compound `Nc1cccc(-c2ccc(CCN3CCN(C(=O)Cc4ccc(F)cc4)CC3)cc2)n1` has a melting point of 143 to 145 °C.
In the case of `Nc1cccc(-c2ccc(CCNC3Cc4ccccc4C3)cc2)n1` (as salt: hydrochloride) [Example 117, 6-{4-[2-(Indan-2-ylamino)-ethyl]-phenyl}-pyridin-2-ylamine], the melting point is reported as 60 to 70 °C (dec.).
For `Nc1cccc(-c2ccc(CCN3CCN(CC(O)c4ccccc4)CC3)cc2)n1` (stereo not shown) (as salt: hydrochloride) [Example 103, 2-(4-{2-[4-(6-Amino-pyridin-2-yl)-phenyl]-ethyl}-piperazin-1-yl)-1-phenyl-ethanol], the melting point was 235 °C (dec.).
`CC(C)NC(=O)CN1CCN(CCc2ccc(-c3cccc(N)n3)cc2)CC1` [Example 23, 2-(4-{2-[4-(6-Amino-pyridin-2-yl)-phenyl]-ethyl}-piperazin-1-yl)-N-isopropyl-acetamide] showed a melting point of 163 to 165 °C.
Compound `Cc1cc(N)nc(-c2ccc(CCN3CCN(CCc4ccccc4)CC3)cc2)c1` (as salt: hydrochloride) [Example 128, 6-{4-[2-(4-Phenethyl-piperazin-1-yl)-ethyl]-phenyl}-4-methyl-pyridin-2-ylamine] has a melting point of 242 to 250 °C.
For `Nc1cccc(-c2ccc(CCNC3CC4CCC(C3)N4Cc3ccc(F)cc3)cc2)n1` (stereo not shown) (as salt: hydrochloride), the melting point was 190 °C (dec.).
In the case of `Nc1cccc(-c2ccc(CCN3CCC(N)(C(=O)NCc4ccccc4)CC3)cc2)n1` (as salt: hydrochloride) [Example 59, 4-Amino-1{-2-[4-(6-amino-pyridin-2-yl)-phenyl]-ethyl}-piperidine-4-carboxylic acid benzylamide], the melting point is reported as > 240 °C (dec.).
